Data from patent publication US20140275090A1, “BILE ACID RECYCLING INHIBITORS FOR TREATMENT OF PRIMARY SCLEROSING CHOLANGITIS AND INFLAMMATORY BOWEL DISEASE” (Lumena Pharmaceuticals, Inc., priority 2013, published 2014).

Tests used:
serum bile acids = experiment: Inhibition of the postprandial rise in SBA (AUC 0-240 min) in dogs, LUM001 compared to cholestyramine; assay type: in vivo, dog
Protocol: LUM001 was dissolved in 0.2% Tween 80 at concentrations that required the administration of 0.2 ml dosing solution/kg of body weight at each dose tested. Cholestyramine was suspended in water at concentrations that required the administration of 2.5 ml/kg (500 mg/kg) and 1 ml/kg (200 mg/kg). The appropriate volume of solution formulation for each animal was placed into a gelatin capsule, Torpac Inc., size 13, Batch 594, East Hanover, N.J. and administered per os. Test compounds were administered as single oral doses to groups of dogs, 3 to 9 dogs per group at varying dosages. LUM001 was given at 0, 0.02, 0.05, 0.2, 0.6, 2, 5 or 15 mg/kg. Cholestyramine was administered at 200 or 500 mg/kg. […] No dog received any one compound dosage more than once. SBA was measured by an enzymatic assay. SBA values are expressed as μg of total bile acids/ml of serum.

fecal bile acids = experiment: Fecal bile acid measurement, rats dosed 4 days; assay type: in vivo, Wistar rat; conditions: for Increase over Vehicle (Delta): fecal bile acids, rat, 4 days
Protocol: Male Wistar rats (Charles River Laboratories) weighing 275-300 grams were single-housed in a constant temperature environment with alternating 12 hour light and dark cycles. All animals had continuous access to a commercial rodent diet as well as water. In each study rats were randomly assigned to either vehicle or treatment groups and were administered intragastric doses of drug dissolved in aqueous 0.2% (v/v) Tween 80 (2 ml/kg body weight). The animals were dosed in the morning between 9:00 and 10:00 a.m. for four consecutive days. Fecal samples were collected on papers underneath each cage during the final 48 hour period of the study and analyzed for bile acid content.
Cage papers containing the 48-hour fecal samples were collected at approximately 9:00 a.m. on the final day and used to determine the individual fecal bile acid (FBA) concentration for each animal. Fecal samples from each rat were weighed and a weight of distilled water (1 gram/mL) equal to 2 times the total weight of feces was added to each sample container (e.g., 20 mL water to 10 grams feces). The containers were stored overnight at 4° C. Each sample was homogenized for approximately 45 seconds using a small food processor to yield a homogeneous slurry. 1.4 grams of the homogenate was weighed into 16×100 polypropylene tubes and 2.6 mL of tertiary butanol/distilled water (2:0.6) added to yield a final concentration of 50% (v/v) tertiary butanol in water. The sample was extracted by incubation for 45 minutes in a 37° C. water bath, and subjected to centrifugation at 3000×g for 13 minutes and the supernatant extract collected.
The concentration of bile acids […] in the extract was determined using a 96-well enzymatic assay system (4,5). 20 μl aliquots of each butanol extract was added to two sets of triplicate wells in a 96-well assay plate (one set on each half of the plate). Standardized sodium taurocholate solutions (0.2 and 0.9 mM) and standardized fecal extract solutions (previously made from pooled fecal samples collected from control and drug-treated rats) were analyzed in parallel to provide a bile acid standard curve and internal quality control samples, respectively. 20 μl aliquots of the sodium taurocholate standard were serially diluted to generate a standard curve and were added to two separate sets of triplicate wells.
To each well, 230 μl of reaction mixture containing 1M hydrazine hydrate, 0.1 M pyrophosphate and 0.46 mg/ml NAD was added. […] Following a 60 minute incubation at room temperature, the optical density at 340 nm was measured and the mean of each set of triplicate wells was calculated. […] A mean value for the increase in FBA for each group was determined and compared to the vehicle group used, to determine compound dosing efficacy. […]

CCCCC1(CCCC)CS(=O)(=O)c2ccc(N(C)C)cc2[C@@H](c2ccc(OCc3ccc(C[N+]45CCN(CC4)CC5)cc3)cc2)[C@H]1O [LUM001]
inhibition of postprandial serum bile acids AUC compared to cholestyramine (serum bile acids; cholestyramine 200 or 500 mg/kg, AUC 0-240 min): superior inhibition
effect on serum bile acids (serum bile acids; single oral doses 0.02-15 mg/kg): significantly decreased
Increase over Vehicle (Delta) (fecal bile acids; Q.D. 0.002 mg/kg/day): 4.1
Increase over Vehicle (Delta) (fecal bile acids; Q.D. 0.008 mg/kg/day): 5.9
Increase over Vehicle (Delta) (fecal bile acids; Q.D. 0.4 mg/kg/day): 47.0
effect on fecal bile acids (fecal bile acids; rats, all doses): significantly increased
